The text below walks through data of patent US20190153024A1, “NOVEL SALTS AND POLYMORPHS OF SCY-078” (priority 2015, published 2019).

Series [1] is described as follows: Solid form stability on storage under ambient conditions. Conditions: 2 days. In kind it is physicochemical. On the procedure: SCY-078 Citrate Type E: SCY-078 citrate Type E was obtained by drying a metastable solvate SCY-078 citrate Type R from MeOH/IPAc.
SCY-078 Citrate Type M: SCY-078 citrate Type M was obtained by storing SCY-078 citrate Type E in ambient conditions for 2 days. […] (onset temperatures) (FIG. 58). […] (FIG. 58).
SCY-078 Trifluoroacetate Type A is highly crystalline as shown in the XRPD (FIG. 85). […] The molar ratio of trifluoroacetate Type A (acid: freebase) was determined to be 1:1 via HPLC-IC confirmation.

A short description of series [2]: Kinetic solubility of trifluoroacetate Types A and B and HCl Type I (alternative procedure: SGF, FaSSIF and FeSSIF alternative media, acetate pH 5.5, phosphate pH 6.0 alternative media). Conditions: for Form change: residual solid by XRPD. Here is the method: An alternative media (“FaSSIF alternative media”) was used to study the trifluoroacetate salts (Type A and B) and the HCl Type I salt. More specifically, the media was prepared by weighing 0.17 g of sodium phosphate monobasic (NaH2PO4, anhydrous), 0.021 g of sodium hydroxide, and 0.31 g of sodium chloride into a 50-mL volumetric flask and was dissolve with approximately 48 mL of purified water. The pH was adjusted to exactly 6.5 using 1 M HCl or 1 M NaOH and diluted to volume with purified water. 0.11 g of SIF powder was then added, stirred and sonicated until all the powder was completely dissolved. The solution was equilibrated for 2 hours at RT before use. The solution can be stored at RT for 48 hours or 4° C. for 7 days and should be equilibrated to RT before use
An alternative media (“FeSSIF alternative media”) was used to study the trifluoroacetate salts (Type A and B) and the HCl Type I salt. More specifically, the media was prepared by transferring 0.41 mL of glacial acid and weighing 0.20 g of sodium hydroxide, 0.59 g of sodium chloride into a 50-mL volumetric flask. This was dissolved with approximately 48 mL of purified water. The pH was adjusted to exactly 5.0 using 1 M HCl or 1 M NaOH and diluted to volume with purified water. 0.56 g of SIF powder was added, stirred and sonicated until all the powder is completely dissolved. The solution can be stored at RT for 48 hours or 4° C. for 7 days and should be equilibrated to RT before use.
Acetate Buffer (pH 5.5) Preparation—The acetate buffer (pH 5.5) used for the trifluoroacetate salts (Type A and B) and the HCl Type I salt was prepared by placing 0.60 g sodium acetate (NaC2H3O2.3H2O) in a 100-mL volumetric flask, adding 3 mL of 2 M acetic acid solution, and then adding purified water to volume.
An alternative media (“phosphate (pH 6.0) alternative media”) was used to study the trifluoroacetate salts (Type A and B) and the HCl Type I salt. More specifically, the media was prepared by dissolving 2.72 g of 0.2 M monobasic potassium phosphate (KH2PO4) in purified water, and diluting with purified water t 100 mL. 0.8 g of 0.2 M sodium hydroxide in purified water was diluted with purified water to 100 mL. Then 50 mL of the 0.2 M monobasic potassium phosphate solution was placed in a 200-mL volumetric flask, 5.6 mL of 0.2 M sodium hydroxide solution was added, and then purified water was added to volume.
The trifluoroacetate salts (Type A and B) and the HCl Type I salt were tested using the following alternative procedure. First, 15 mg, 36 mg or 90 mg solid was weighted into a 4-mL plastic tube, and 3 mL of relevant media was added before leaving the suspension on a rolling incubator (25 r/min). For SCF, 90 mg of solid was used. For FaSSIF, acetate buffer (pH 5.5), and phosphate buffer (pH 6.0), 15 mg solid was used. For FeSSIF, 36 mg of solid was used. 1.0 mL aliquot of the suspension was sampled for centrifugation with the supernatant submitted for HPLC and pH measurement and solid for XRPD characterization at 1 hr, 4 hr and/or 24 hrs.
The solubility of trifluoroacetate Type A, Type B and HCl Type I was measured in SGF at ambient temperature. Approximately 90 mg of solid sample was weighted into a 4-mL centrifuge tube, and 3 mL of SGF buffer was added before leaving the suspension on a rolling incubator (25 r/min). 1.0 mL aliquot of the suspension was sampled for centrifugation (10000 rpm, 3 mins) the supernatant was analyzed by HPLC and pH measurement and solid by XRPD characterization at 1 hr, 4 hr and 24 hrs, respectively.
The solubility of trifluoroacetate Type A, Type B and hydrochloride Type I was measured in the FaSSIF alternative media at ambient temperature. Approximately 15 mg of solid sample was weighted into a 4-mL plastic tube, and 3 mL of the media was added before leaving the suspension on a rolling incubator (25 r/min).

Series [3] in a line: Physical and chemical stability of trifluoroacetate Types A and B and HCl Type I for 1, 2, 4 and 8 weeks. Type of series: physicochemical. On the procedure:
High Power Liquid Chromatography (HPLC) Method—An Agilent 1260 HPLC with DAD detector was utilized to test solubility or to test purity and stability. […] System suitability was tested by injecting standard solutions five times in each sample sequence, and the relative standard deviation of the peak areas was less than 2%.
Physical and chemical stability evaluation of trifluoroacetate Type A, trifluoroacetate Type B, and HCl Type I was performed at 25° C./60% RH, 40° C./75% RH and 60° C. for 1, 2, 4 and 8 weeks. In the experiments, approximately 20 mg of solid was placed into a 1.5-mL glass vial. The vials were stored under 25° C./60% RH (uncapped), 40° C./75% RH (uncapped) and 60° C. (capped) conditions for 8 weeks. XRPD analysis was then employed to check the crystalline form of the solid, and HPLC was utilized to determine the purity profile at 1, 2, 4 and 8 weeks. […] The solid form change of trifluoroacetate Type A at 2 and 4 weeks was postulated to the air-exposure when the sample was taken out for XRPD characterization.

The nature of series [4]: Form change of trifluoroacetate on storage at varying relative humidity. Type of series: physicochemical. To be noted: storage for 24 hours. On the procedure: To investigate transition relationship of trifluoroacetate Type A and Type B, both samples were stored in chambers with varying relative humidity to monitor any form change. […] Varying temperature (VT)-XRPD of trifluoroacetate Type A was performed.

The mark [5] stands for this setting: 25° C./60% RH (uncapped), 1 week.
The mark [6] stands for this setting: 25° C./60% RH (uncapped), 2 weeks.
[7] abbreviates: 25° C./60% RH (uncapped), 4 weeks.
[8] abbreviates: 25° C./60% RH (uncapped), 8 weeks.
Setting [9] is: 40° C./75% RH (uncapped), 1 week.
Setting [10] is: 40° C./75% RH (uncapped), 2 weeks.
The mark [11] stands for this setting: 40° C./75% RH (uncapped), 4 weeks.
The mark [12] stands for this setting: 40° C./75% RH (uncapped), 8 weeks.

Consider `CC(C)[C@@H](C)[C@@]1(C)CC[C@]2(C)[C@H]3CC[C@@H]4[C@@]5(COC[C@]4(C)[C@@H](OC[C@](C)(N)C(C)(C)C)[C@H](n4ncnc4-c4ccncc4)C5)C3=CC[C@@]2(C)[C@@H]1C(=O)O.O=C(O)CC(O)(CC(=O)O)C(=O)O` [SCY-078 citrate Type E], for which the “solid form stability at ambient conditions” value in series [1] is on record as “not stable”.

Consider `CC(C)[C@@H](C)[C@@]1(C)CC[C@]2(C)[C@H]3CC[C@@H]4[C@@]5(COC[C@]4(C)[C@@H](OC[C@](C)(N)C(C)(C)C)[C@H](n4ncnc4-c4ccncc4)C5)C3=CC[C@@]2(C)[C@@H]1C(=O)O.O=C(O)C(F)(F)F` [SCY-078 Trifluoroacetate Type A], for which the “solid form stability at ambient conditions” value in series [1] is “converted to Type B”. In addition, the “form change of residual solid in FaSSIF alternative media” value in series [2] (FaSSIF alternative media, ambient temperature, listed as trifluoroacetate Type A) is “no form change was observed”. Also, in series [2] (FeSSIF alternative media, ambient temperature, listed as Trifluoroacetate Type A), the “form change of residual solid in FeSSIF alternative media” value is “converted to Type B”. The “form change of residual solid in SGF” value in series [2] (SGF, ambient temperature, listed as trifluoroacetate Type A) is “no form change was observed”. Further, in series [2] (acetate buffer pH 5.5, ambient temperature, 4 hr and 24 hrs), the “solubility in acetate buffer (comparison)” value is reported as “higher solubility”. Further, in series [2] (acetate buffer pH 5.5, ambient temperature, listed as Trifluoroacetate Type A), the “form change of residual solid in acetate buffer” value is given as “no form change was observed”. The “solubility trend in FeSSIF alternative media” value in series [2] (after an hour) is listed as “decreasing solubility”. The “solubility in phosphate (pH 6.0) alternative media (comparison)” value in series [2] (phosphate (pH 6.0) alternative media, ambient temperature, 4 hr and 24 hrs) is recorded as “lower solubility”. The “form change of residual solid in phosphate (pH 6.0) alternative media” value in series [2] (phosphate (pH 6.0) alternative media, ambient temperature, listed as Trifluoroacetate Type A) is “firstly converted to Type B at 4 hrs and back to Type A at 24 hrs”. The “physical and chemical stability” value in series [3] (25° C./60% RH, 40° C./75% RH and 60° C., 8 weeks, listed as trifluoroacetate Type A) was “physically and chemically stable”.

With `CC(C)[C@@H](C)[C@@]1(C)CC[C@]2(C)[C@H]3CC[C@@H]4[C@@]5(COC[C@]4(C)[C@@H](OC[C@](C)(N)C(C)(C)C)[C@H](n4ncnc4-c4ccncc4)C5)C3=CC[C@@]2(C)[C@@H]1C(=O)O.O=C(O)C(F)(F)F` [TFA Type B], the “Form by XRPD after storage” value was “Type B” in series [4] (Relativity Humidity 0%), “Type B” in series [4] (Relativity Humidity 22%) and “Type A” in series [4] (Relativity Humidity 97%). The Form change entry in series [2] (FeSSIF alternative media, 1 hr) is “No”; in series [2] (FeSSIF alternative media, 4 hrs) it was “No”; in series [2] (FeSSIF alternative media, 24 hrs) it was “No”; in series [2] (phosphate (pH 6.0) alternative media, 4 hrs), “No”. Moreover, the HPLC purity in series [3] (setting [5]), in series [3] (setting [6]), in series [3] (setting [7]), in series [3] (setting [8]), in series [3] (setting [9]) and in series [3] (setting [10]) was 99.9% throughout. For the same compound, the HPLC purity in series [3] (setting [11]) is recorded as 99.9%; in series [3] (setting [12]), 99.9%; in series [3] (60° C. (capped), 1 week), 99.9%; in series [3] (60° C. (capped), 2 weeks), 99.9%; in series [3] (60° C. (capped), 4 weeks) it was 99.9%; in series [3] (60° C. (capped), 8 weeks) it was 99.9%. For the same compound, the Solid form result in series [3] (setting [5]), in series [3] (setting [6]), in series [3] (setting [7]), in series [3] (setting [8]), in series [3] (setting [9]) and in series [3] (setting [10]) was “Type A” throughout. Further, the Solid form result was “Type A” in series [3] (setting [11]); “Type A” in series [3] (setting [12]); “Type A” in series [3] (60° C. (capped), 1 week); “Type A” in series [3] (60° C. (capped), 2 weeks); “Type A” in series [3] (60° C. (capped), 4 weeks); “Type A” in series [3] (60° C. (capped), 8 weeks). Moreover, the “Initial HPLC purity” value in series [3] (Initial) is 99.9%.
